{"source": "patent US8410278B2", "about": "“Method for preparing a non-hydratable crystal form” (E I du Pont de Nemours and Company, priority 2008, dated 2013)", "key": {"[1]": {"format": "physicochemical", "source_text": "Remarkably water is now discovered to work very well as a solvent in the heated liquid phase for converting Polymorph B to Polymorph A. This is particularly unexpected, because Polymorph B, which can accommodate significant amounts of water in its crystal lattice, can be anticipated to be favored over anhydrous Polymorph A in an aqueous medium. Nevertheless, water is now found to be particularly suitable in forming the liquid phase for conversion of Polymorph B to Polymorph A. Conversion proceeds to near 100% completion and in high yields within commercially convenient time periods at temperatures not exceeding about 100° C. (i.e. the normal boiling point of water). […] Alternatively if Polymorph A is in high concentration in water, Polymorph A can be isolated by evaporation of the water."}, "[2]": {"experiment": "Water uptake/loss on exposure to variations in atmospheric humidity", "format": "physicochemical", "source_text": "(§1) A method has now been discovered for the preparation of a non-hydratable polymorph of Compound 1 (Polymorph A) from a hydratable polymorph of Compound 1 (Polymorph B) that typically is initially formed by procedures for preparing Compound 1. […] This surprising stability facilitates a more consistent assay of Compound 1. These characteristics also make Polymorph A of Compound 1 well suited for the production of long-lasting stable solid formulations, enabling specifying a stable active ingredient content."}, "[3]": {"experiment": "Crystal form stability during long-term storage", "format": "physicochemical", "source_text": "as §1"}}}
{"smiles": "CNC(=O)c1cc(C#N)cc(C)c1NC(=O)c1cc(Br)nn1-c1ncccc1Cl", "note": "[Polymorph A, 3-bromo-1-(3-chloro-2-pyridinyl)-N-[4-cyano-2-methyl-6-[(methylamino)carbonyl]phenyl]-1H-pyrazole-5-carboxamide]", "values": [{"measurement": "Solubility in water", "setting": "[1]", "value": "little solubility in water"}, {"measurement": "Change of water content on exposure to variations in atmospheric humidity", "setting": "[2]", "value": "does not gain or lose appreciable amounts of water"}, {"measurement": "Conversion to Polymorph B during long-term storage", "setting": "[3]", "value": "does not typically convert to Polymorph B"}]}
{"smiles": "CNC(=O)c1cc(C#N)cc(C)c1NC(=O)c1cc(Br)nn1-c1ncccc1Cl", "note": "[Polymorph B, 3-bromo-1-(3-chloro-2-pyridinyl)-N-[4-cyano-2-methyl-6-[(methylamino)carbonyl]phenyl]-1H-pyrazole-5-carboxamide]", "values": [{"measurement": "Change of water content on exposure to variations in atmospheric humidity", "setting": "[2]", "value": "changes significantly"}]}
